Laboratory results published in patent US7312245B2 (priority 2001, dated 2007).
Read-outs that look alike come from different tables or passages of the source.

Legend:
Assay type in all cases: in vivo
Pyricularia oryzae [1] = conditions: granules applied to water surface at 3 kg/10 ares; rice Koshihikari; inoculated 30 days after application; lesions checked after 1 week
Pyricularia oryzae [2] = conditions: nursery box treated with granules 50 g per box; rice Koshihikari; inoculated 30 days after transplantation; lesions counted after 1 week
Pyricularia oryzae [3] = conditions: spray application of wettable powder diluted to 500 ppm; rice Koshihikari 2-leaf stage; spray-inoculated with Pyricularia oryzae spores; examined after 7 days

Compound | Grade of Effect (preventive value, rice blast controlling effect) (Pyricularia oryzae [1]) | Grade of Effect (preventive value, rice blast controlling effect) (Pyricularia oryzae [2]) | Grade of Effect (preventive value, rice blast controlling effect) (Pyricularia oryzae [3])
Cc1ccccc1C(=O)NCC(NC(=O)OC(C)C)C(C)C (stereo not drawn) [compound 239] | A (From 80% to 100%) | A (From 80% to 100%) | A (100%)
CC(CNC(=O)c1ccccc1)NC(=O)c1ccccc1 (stereo not drawn) [Formula (7), reference compound] | C (less than 50%) | C (less than 50%) | D (less than 50%)
O=C(NC(CNC(=O)c1ccccc1)c1ccccc1)OCc1ccccc1 (stereo not drawn) [compound 636, N-(benzyloxycarbonyl)-N′-benzoyl-1-phenyl-1,2-ethylenediamine] | A (From 80% to 100%) | A (From 80% to 100%) | A (100%)
CC(C)OC(=O)NC(CNC(=O)c1ccc(Cl)c(Cl)c1)C(C)C (stereo not drawn) [compound 238] | A (From 80% to 100%) | A (From 80% to 100%) | A (100%)
CC(OC(=O)NC(CNC(=O)c1ccc(Cl)cc1)C(C)C)c1ccccc1 (stereo not drawn) [compound 1078] | A (From 80% to 100%) | A (From 80% to 100%) | A (100%)
CC(C)COC(=O)NC(CNC(=O)c1ccc(Cl)cc1)C(C)C (stereo not drawn) [compound 384] | A (From 80% to 100%) | A (From 80% to 100%) | A (100%)
Cc1ccc(C(=O)NCC(NC(=O)OCc2ccoc2)C(C)C)cc1 (stereo not drawn) [compound 1141] | A (From 80% to 100%) | A (From 80% to 100%) | A (100%)
CC(C)C(CNC(=O)c1ccccc1)NC(=O)Oc1ccccc1 (stereo not drawn) [compound 526] | A (From 80% to 100%) | A (From 80% to 100%) | A (100%)
CC(C)OC(=O)NC(CNC(=O)c1ccc(Cl)cc1)C(C)C (stereo not drawn) [compound 237] | A (From 80% to 100%) | A (From 80% to 100%) | A (100%)
CC(CNC(=O)c1ccc(C(C)(C)C)cc1)NC(=O)OC(C)C (stereo not drawn) [compound 216] | A (From 80% to 100%) | A (From 80% to 100%) | A (100%)
CC(C)OC(=O)NC(CNC(=O)c1ccccc1)C(C)C (stereo not drawn) [compound 236] | A (From 80% to 100%) | A (From 80% to 100%) | A (100%)
CC(C)C(NC(=O)OC(C)(C)C)C(C)NC(=O)c1ccc(Cl)cc1 (stereo not drawn) [compound 471] | A (From 80% to 100%) | A (From 80% to 100%) | A (100%)
CC(C)C(CNC(=O)c1ccc(Cl)cc1)NC(=O)OCCS(C)(=O)=O (stereo not drawn) [compound 1273] | A (From 80% to 100%) | A (From 80% to 100%) | A (100%)
CC(C)C(CNC(=O)c1ccc(Cl)cc1)NC(=O)OCc1cccs1 (stereo not drawn) [compound 1168] | A (From 80% to 100%) | A (From 80% to 100%) | A (100%)
C#CCOC(=O)NC(CNC(=O)c1ccc(C)cc1)C(C)C (stereo not drawn) [compound 807] | A (From 80% to 100%) | A (From 80% to 100%) | A (100%)
Cc1ccc(C(=O)NCC(NC(=O)OC(C)(C)C)c2ccccc2)cc1 (stereo not drawn) [compound 504, N-(t-butoxycarbonyl)-N′-(4-methylbenzoyl)-1-phenyl-1,2-ethylenediamine] | B (50% or more and less than 80%) | B (50% or more and less than 80%) | B (80% or more and less than 100%)
CC(C)C(CNC(=O)c1ccc(Cl)cc1)NC(=O)OCc1ccco1 (stereo not drawn) [compound 1123] | A (From 80% to 100%) | A (From 80% to 100%) | A (100%)
COC(=O)NC(CNC(=O)c1ccc(C)cc1)C(C)C (stereo not drawn) [compound 30] | A (From 80% to 100%) | A (From 80% to 100%) | A (100%)
Cc1ccc(C(=O)NCC(NC(=O)OC(C)C)C(C)C)s1 (stereo not drawn) [compound 243] | A (From 80% to 100%) | A (From 80% to 100%) | A (100%)
Cc1ccc(COC(=O)NC(CNC(=O)c2ccc(C)cc2)C(C)C)cc1 (stereo not drawn) [compound 1050] | A (From 80% to 100%) | A (From 80% to 100%) | A (100%)
Cc1ccc(C(=O)NCC(NC(=O)OCc2ccco2)C(C)C)cc1 (stereo not drawn) [compound 1126] | A (From 80% to 100%) | A (From 80% to 100%) | A (100%)
Cc1ccc(C(=O)NCC(NC(=O)OC(C)(C)C)C(C)C)cc1 (stereo not drawn) [compound 464] | B (50% or more and less than 80%) | B (50% or more and less than 80%) | B (80% or more and less than 100%)
Cc1ccc(C(=O)NCC(NC(=O)Oc2ccccc2)C(C)C)cc1 (stereo not drawn) [compound 530] | A (From 80% to 100%) | A (From 80% to 100%) | A (100%)
Cc1ccc(C(=O)NC(C)C(NC(=O)OC(C)C)C(C)C)cc1 (stereo not drawn) [compound 246] | A (From 80% to 100%) | A (From 80% to 100%) | A (100%)
COC(=O)NC(C)CNC(=O)c1ccc(Cl)cc1 (stereo not drawn) [compound 4] | A (From 80% to 100%) | A (From 80% to 100%) | A (100%)
C#CCOC(=O)NC(CNC(=O)c1ccc(Cl)cc1)C(C)C (stereo not drawn) [compound 804] | A (From 80% to 100%) | A (From 80% to 100%) | A (100%)
Cc1ccc(C(=O)NCC(NC(=O)OCCS(C)(=O)=O)C(C)C)cc1 (stereo not drawn) [compound 1276] | A (From 80% to 100%) | A (From 80% to 100%) | A (100%)
COC(=O)NC(CNC(=O)c1ccccc1)c1ccccc1 (stereo not drawn) [compound 66, N-(methoxycarbonyl)-N′-benzoyl-1-phenyl-1,2-ethylenediamine] | A (From 80% to 100%) | A (From 80% to 100%) | A (100%)
Cc1ccc(C(=O)NCC(NC(=O)OCc2cccs2)C(C)C)cc1 (stereo not drawn) [compound 1171] | A (From 80% to 100%) | A (From 80% to 100%) | A (100%)
C=CCOC(=O)NC(CNC(=O)c1ccc(C)cc1)C(C)C (stereo not drawn) [compound 742] | A (From 80% to 100%) | A (From 80% to 100%) | A (100%)
